Measurements reported in patent US10457707B2, “Substituted urea depsipeptide analogs as activators of the CLPP endopeptidase” (priority 2015, dated 2019).
≈ marks a conversion by molar mass, not a printed value. Where two headings read alike, the source gives them in different places. *1 amine or outer side, *2 acyl side, *3 side chain or, on linkers, in order; H or OH if unused. Where a SMILES comes first, the peptide text is derived from it. Bridges are numbered along the chain shown (N, C = ends). [ ]: non-standard residue; d: D form. The star is where a group is joined. ξ: configuration not given here. NH(1,3-benzodioxol-5-yl) = c1cc2c(cc1N*)OCO2; Phe(3,5-F2) = N[C@@H](Cc1cc(F)cc(F)c1)C(=O)O; Morpholine(3S-CO) = O=C(O)[C@@H]1COCCN1; Pro(4R-Me) = C[C@H]1CN[C@H](C(=O)O)C1; X11 = O=C(C1C[C@@H](F)CN1[*:1])[*:2]; ξPro(4R-Me) = C[C@H]1CNC(C(=O)O)C1; NMeT = CN[C@H](C(=O)O)[C@@H](C)O; NH(4-Me-phenyl) = Cc1ccc(N*)cc1; aThr = C[C@H](O)[C@H](N)C(=O)O; X5 = O=C(C1COCCN1[*:1])[*:2]; Pip = O=C(O)[C@@H]1CCCCN1; ξPip = O=C(O)C1CCCCN1; CO = O=C([*:1])[*:2]; ξP = O=C(O)C1CCCN1

Columns and labels:
Assay type in all cases: cell-based
[1] = test system: Streptococcus pneumoniae, R6; assay: Minimal inhibitory concentration assay; details: read-out: Minimal Inhibitory Concentrations S. pneumoniae R6
Method: It is understood, that in various aspects, the MIC is determined by a microbroth dilution method. […] In a still further aspect, the MIC is determined by a microbroth dilution method using Staphylococcus aureus, NRS70. […] In an even further aspect, the MIC is determined by a microbroth dilution method using Streptococcus pneumoniae, DAW27. […] In an even further aspect, the MIC is determined using Staphylococcus aureus, USA 300. In a still further aspect, the MIC is determined using Streptococcus pneumoniae, R6. In a further aspect, the MIC is determined using Staphylococcus aureus, USA 300 and compared to the MIC determined using Staphylococcus aureus, USA 300 wherein ClpP is inactivated, thus allowing confirmation that killing is via a ClpP-dependent pathway.
Two fold serial dilutions of test compound in 100 μL of the appropriate broth media were first prepared in 96-well round bottom microtiter plates (Nalgene Nunc International, Rochester, N.Y., USA). […] The plates were then incubated aerobically at 37° C. All strains were incubated overnight. After incubations, in all cases the MIC was recorded as the lowest concentration of drug that prevented bacterial growth. The bacterial strains for which MIC was determined as described in Table 4.

[2] = test system: Streptococcus pyogenes, ATCC 700294; assay: Minimal inhibitory concentration assay (microbroth dilution)
Method: (§1) It is understood, that in various aspects, the MIC is determined by a microbroth dilution method. In a further aspect, the MIC is determined by a microbroth dilution method using Staphylococcus aureus, ATCC 29213. In a still further aspect, the MIC is determined by a microbroth dilution method using Staphylococcus aureus, NRS70. In a yet further aspect, the MIC is determined by a microbroth dilution method using Streptococcus pyogenes, ATCC 700294. In an even further aspect, the MIC is determined by a microbroth dilution method using Streptococcus pneumoniae, DAW27. In a still further aspect, the MIC is determined by a microbroth dilution method using Bacillus subtilis, ATCC 23857. In a yet further aspect, the MIC is determined by a microbroth dilution method using Enterococcus faecalis, ATCC 33186. In an even further aspect, the MIC is determined using Staphylococcus aureus, USA 300. In a still further aspect, the MIC is determined using Streptococcus pneumoniae, R6. In a further aspect, the MIC is determined using Staphylococcus aureus, USA 300 and compared to the MIC determined using Staphylococcus aureus, USA 300 wherein ClpP is inactivated, thus allowing confirmation that killing is via a ClpP-dependent pathway.
Minimal inhibitory concentrations (“MICs”) were determined using the microbroth dilution method according to Clinical Laboratory Standards Institute (CLSI; National, C.F. C. L. S., Methods for Dilution Antimicrobial Susceptibility Tests for Bacteria Grow aerobically-Seventh Edition: Approved Standard M7-A7, CLSI, Wayne, Pa., USA, 2008) and were read by visual inspection. Two fold serial dilutions of test compound in 100 μL of the appropriate broth media were first prepared in 96-well round bottom microtiter plates (Nalgene Nunc International, Rochester, N.Y., USA). […] The plates were then incubated aerobically at 37° C. All strains were incubated overnight. After incubations, in all cases the MIC was recorded as the lowest concentration of drug that prevented bacterial growth. The bacterial strains for which MIC was determined as described in Table 4.

[3] = test system: Staphylococcus aureus, USA 300 wherein ClpP is inactivated; assay: Minimal inhibitory concentration assay
Method: as §1
(§2) Minimal inhibitory concentrations (“MICs”) were determined using the microbroth dilution method according to Clinical Laboratory Standards Institute (CLSI; National, C.F. C. L. S., Methods for Dilution Antimicrobial Susceptibility Tests for Bacteria Grow aerobically-Seventh Edition: Approved Standard M7-A7, CLSI, Wayne, Pa., USA, 2008) and were read by visual inspection. Two fold serial dilutions of test compound in 100 μL of the appropriate broth media were first prepared in 96-well round bottom microtiter plates (Nalgene Nunc International, Rochester, N.Y., USA). An equivalent volume (100 μL) of bacterial broth inocula containing approximately 10^5 bacterial cfu/mL was added to each well to give final concentrations of test compound starting at 200 μM. The plates were then incubated aerobically at 37° C. All strains were incubated overnight. After incubations, in all cases the MIC was recorded as the lowest concentration of drug that prevented bacterial growth. The bacterial strains for which MIC was determined as described in Table 4.

[4] = test system: Staphylococcus aureus, USA 300; assay: Minimal inhibitory concentration assay; details: USA300, read-out: Minimal Inhibitory Concentrations S. aureus USA 300
Method: as §1, §2

[5] = test system: Bacillus subtilis, ATCC 23857; assay: Minimal inhibitory concentration assay (microbroth dilution)
Method: as §1, §2

[6] = test system: Staphylococcus aureus, ATCC 29213; assay: as above; details: ATCC29213, read-out: Minimal Inhibitory Concentrations S. aureus ATCC 29213
Method: as §1, §2

[7] = test system: Staphylococcus aureus, NRS70; assay: as above
Method: as §1, §2

[8] = Streptococcus pyogenes, ATCC700294; read-out: Minimal Inhibitory Concentrations S. pyogenes ATCC 700294
[9] = Bacillus subtilis, ATCC23857; read-out: Minimal Inhibitory Concentrations B. subtilis ATCC 23857
[10] = Staphylococcus aureus, NRS70; read-out: Minimal Inhibitory Concentrations S. aureus NRS70
[11] = Streptococcus pyogenes, ATCC700294, read-out: Minimal Inhibitory Concentrations S. pyogenes ATCC 700294
[12] = Bacillus subtilis, ATCC23857, read-out: Minimal Inhibitory Concentrations B. subtilis ATCC 23857
[13] = Staphylococcus aureus, NRS70, read-out: Minimal Inhibitory Concentrations S. aureus NRS70

Compound | MIC [1] | MIC [2, 8] | Minimal Inhibitory Concentrations S. aureus USA 300 ΔClpP [3] | MIC [4] | MIC [5, 9] | MIC [6] | MIC [7, 10] | MIC [2, 11] | MIC [5, 12] | MIC [7, 13]
C[C@@H]1C[C@H]2C(=O)O[C@@H](C)[C@H](NC(=O)[C@H](Cc3cc(F)cc(F)c3)NC(=O)Nc3ccc4c(c3)OCO4)C(=O)N3CCC[C@H]3C(=O)N3CCCC[C@H]3C(=O)N[C@@H](C)C(=O)N2C1 [Compound 198, (S)-2-(3-(benzo[d][1,3]dioxol-5-yl)ureido)-3-(3,5-difluorophenyl)-N-((2R,6S,8aS,14aS,20S,21S,23aS)-2,6,21-trimethyl-5,8,14,19,23-pentaoxooctadecahydro-1H,5H,14H,19H-pyrido[2,1-i]dipyrrolo[2,1-c:2′,1′-l][1]oxa[4,7,10,13]tetraazacyclohexadecin-20-yl)propanamide] ({NH(1,3-benzodioxol-5-yl)-CO}-[Phe(3,5-F2)][aThr]P[Pip]A[Pro(4R-Me)]; ester 2-C) | < 0.02 µM | 0.039 µM (≈ 0.0327 µg/mL) | >20 µM | 0.039 µM (≈ 0.0327 µg/mL) | < 0.02 µM | 0.039 µM (≈ 0.0327 µg/mL) | < 0.02 µM | – | – | –
C[C@@H]1C[C@H]2C(=O)O[C@@H](C)[C@H](NC(=O)[C@H](Cc3cc(F)cc(F)c3)NC(=O)Nc3ccc4c(c3)OCO4)C(=O)N3CCC[C@H]3C(=O)N3CCOC[C@H]3C(=O)N[C@@H](C)C(=O)N2C1 [Compound 199, (S)-2-(3-(benzo[d][1,3]dioxol-5-yl)ureido)-3-(3,5-difluorophenyl)-N-((6aS,12S,13S,15aS,17R,21S,23aS)-13,17,21-trimethyl-6,11,15,20,23-pentaoxooctadecahydro-6H,11H,15H-[1,4]oxazino[3,4-i]dipyrrolo[2,1-c:2′,1′-l][1]oxa[4,7,10,13]tetraazacyclohexadecin-12-yl)propanamide] ({NH(1,3-benzodioxol-5-yl)-CO}-[Phe(3,5-F2)][aThr]P[Morpholine(3S-CO)]A[Pro(4R-Me)]; ester 2-C) | < 0.02 µM | 0.039 µM (≈ 0.0328 µg/mL) | >20 µM | 0.078 µM (≈ 0.0655 µg/mL) | 0.039 µM (≈ 0.0328 µg/mL) | 0.039 µM (≈ 0.0328 µg/mL) | 0.039 µM (≈ 0.0328 µg/mL) | – | – | –
Cc1ccc(NC(=O)N[C@@H](Cc2cc(F)cc(F)c2)C(=O)N[C@@H]2C(=O)N3CCCC3C(=O)N3CCOCC3C(=O)N[C@@H](C)C(=O)N3C[C@H](C)CC3C(=O)O[C@H]2C)cc1 (stereo partly drawn) [Compound 47, (S)-3-(3,5-difluorophenyl)-2-(3-(p-tolyl)ureido)-N-((6aS,12S,13S,15aS,17R,21S,23aS)-13,17,21-trimethyl-6,11,15,20,23-pentaoxooctadecahydro-6H,11H,15H-[1,4]oxazino[3,4-i]dipyrrolo[2,1-c:2′,1′-l][1]oxa[4,7,10,13]tetraazacyclohexadecin-12-yl)propanamide] ({NH(4-Me-phenyl)-CO}-[Phe(3,5-F2)][aThr][ξP][X5]A[ξPro(4R-Me)]; ester 2-C) | 0.002 µM (≈ 0.00162 µg/mL) | – | >200 µM | 0.01 µM (≈ 0.0081 µg/mL) | – | 0.003 µM (≈ 0.00243 µg/mL) | – | 0.02 µM (≈ 0.0162 µg/mL) | 0.8 µM (≈ 0.648 µg/mL) | 0.0002 µM (≈ 0.000162 µg/mL)
CN[C@@H]1[C@H](O)[C@H](NC)[C@H]2O[C@@]3(O)C(=O)C[C@@H](C)O[C@H]3O[C@@H]2[C@H]1O [Spectinomycin, spectinomycin, reference compound] | 6.3 µM (≈ 2.09 µg/mL) | 12.5 µM (≈ 4.15 µg/mL) | 25 µM | 50 µM (≈ 16.6 µg/mL) | 6.3 µM (≈ 2.09 µg/mL) | 50 µM (≈ 16.6 µg/mL) | > 800 µM | – | – | –
Cc1ccc(NC(=O)N[C@@H](Cc2cc(F)cc(F)c2)C(=O)N[C@H]2COC(=O)C3C[C@@H](F)CN3C(=O)[C@H](C)NC(=O)C3CCCCN3C(=O)C3CCCN3C2=O)cc1 (stereo partly drawn) [Compound 51, (S)-3-(3,5-difluorophenyl)-N-((2R,6S,8aS,14aS,20S,23aS)-2-fluoro-6-methyl-5,8,14,19,23-pentaoxooctadecahydro-1H,5H,14H,19H-pyrido[2,1-i]dipyrrolo[2,1-c:2′,1′-l][1]oxa[4,7,10,13]tetraazacyclohexadecin-20-yl)-2-(3-(p-tolyl)ureido)propanamide] ({NH(4-Me-phenyl)-CO}-[Phe(3,5-F2)]S[ξP][ξPip]A[X11]; ester 2-C) | 6.3 µM (≈ 5.03 µg/mL) | – | >200 µM | 12.5 µM (≈ 9.97 µg/mL) | – | 12.5 µM (≈ 9.97 µg/mL) | – | 12.5 µM (≈ 9.97 µg/mL) | > 200 µM | 6.3 µM (≈ 5.03 µg/mL)
C[C@@H]1C[C@H]2C(=O)O[C@@H](C)[C@H](NC(=O)[C@H](Cc3cc(F)cc(F)c3)NC(=O)Nc3ccc4c(c3)OCO4)C(=O)N3CCC[C@H]3C(=O)N(C)[C@@H]([C@@H](C)O)C(=O)N[C@@H](C)C(=O)N2C1 [Compound 197, (S)-2-(3-(benzo[d][1,3]dioxol-5-yl)ureido)-3-(3,5-difluorophenyl)-N-((2R,6S,9S,11aS,17S,18S,20aS)-9-((R)-1-hydroxyethyl)-2,6,10,18-tetramethyl-5,8,11,16,20-pentaoxohexadecahydro-1H,5H,16H-dipyrrolo[2,1-c:2′,1′-l][1]oxa[4,7,10,13]tetraazacyclohexadecin-17-yl)propanamide] ({NH(1,3-benzodioxol-5-yl)-CO}-[Phe(3,5-F2)][aThr]P[NMeT]A[Pro(4R-Me)]; ester 2-C) | < 0.02 µM | 0.039 µM (≈ 0.0328 µg/mL) | >20 µM | 0.078 µM (≈ 0.0657 µg/mL) | < 0.02 µM | 0.039 µM (≈ 0.0328 µg/mL) | 0.039 µM (≈ 0.0328 µg/mL) | – | – | –
